Assay results: ChEMBL document CHEMBL3856212, “Synthesis, anti-proliferative and genotoxicity studies of 6-chloro-5-(2-substituted-ethyl)-1,3-dihydro-2H-indol-2-ones and 6-chloro-5-(2-chloroethyl)-3-(alkyl/ary-2-ylidene)indolin-2-ones” (Eur J Med Chem, 2016)

Legend:
Type in all cases: functional
[1] = Cytotoxicity against human MALME-3M cells assessed as growth inhibition after 48 hrs by SRB assay; details: for CC50: read-out: LD50 (the source's name)
[2] = Cytotoxicity against human DU145 cells assessed as assessed as growth inhibition at 10^-5 M after 48 hrs by SRB assay relative to control; details: DU-145, 48 h, read-out: GI
[3] = Cytotoxicity against human NCI-H23 cells assessed as growth inhibition after 48 hrs by SRB assay; details: NCI-H23, 48 h; for CC50: read-out: LD50 (the source's name)
[4] = Cytotoxicity against human UO31 cells assessed as growth inhibition after 48 hrs by SRB assay; details: UO-31, 48 h; for CC50: read-out: LD50 (the source's name)
[5] = Cytotoxicity against human TK10 cells assessed as growth inhibition after 48 hrs by SRB assay; details: TK-10, 48 h; for CC50: read-out: LD50 (the source's name)
[6] = Cytotoxicity against human Caki1 cells assessed as growth inhibition after 48 hrs by SRB assay; details: CAKI-1, 48 h; for CC50: read-out: LD50 (the source's name)
[7] = Cytotoxicity against human SF539 cells assessed as growth inhibition after 48 hrs by SRB assay; details: SF-539, 48 h; for CC50: read-out: LD50 (the source's name)
[8] = Cytotoxicity against human MDA-MB-231 cells assessed as growth inhibition after 48 hrs by SRB assay; details: MDA-MB-231, 48 h; for CC50: read-out: LD50 (the source's name)
[9] = Cytotoxicity against human SW1222 cells assessed as assessed as growth inhibition at 10^-5 M after 48 hrs by SRB assay relative to control; details: SW1222, 48 h, read-out: GI
[10] = Cytotoxicity against human RPMI8226 cells assessed as growth inhibition after 48 hrs by SRB assay; details: RPMI-8226, 48 h; for CC50: read-out: LD50 (the source's name)
[11] = Cytotoxicity against human IGROV1 cells assessed as growth inhibition after 48 hrs by SRB assay; details: IGROV-1, 48 h; for CC50: read-out: LD50 (the source's name)
[12] = Cytotoxicity against human OVCAR4 cells assessed as assessed as growth inhibition at 10^-5 M after 48 hrs by SRB assay relative to control; details: OVCAR-4, 48 h, read-out: GI
[13] = Cytotoxicity against human TK10 cells assessed as assessed as growth inhibition at 10^-5 M after 48 hrs by SRB assay relative to control; details: TK-10, 48 h, read-out: GI
[14] = Cytotoxicity against human NCI-H226 cells assessed as growth inhibition after 48 hrs by SRB assay; details: NCI-H226, 48 h; for CC50: read-out: LD50 (the source's name)
[15] = Cytotoxicity against human HOP92 cells assessed as growth inhibition after 48 hrs by SRB assay; details: HOP-92, 48 h; for CC50: read-out: LD50 (the source's name)
[16] = Cytotoxicity against human COLO205 cells assessed as assessed as growth inhibition at 10^-5 M after 48 hrs by SRB assay relative to control; details: COLO 205, 48 h, read-out: GI

Compound | GI50 [3] [nM] | TGI [3] [nM] | CC50 [3] [nM] | GI50 [6] [nM] | TGI [6] [nM] | CC50 [6] [nM] | GI50 [7] [nM] | TGI [7] [nM] | CC50 [7] [nM] | GI50 [8] [nM] | TGI [8] [nM] | CC50 [8] [nM] | GI50 [10] [nM] | TGI [10] [nM] | CC50 [10] [nM] | inhibition of growth at 10 µM [12] [%] | inhibition of growth at 10 µM [13] [%] | GI50 [14] [nM] | TGI [14] [nM] | CC50 [14] [nM] | other results
O=C1Cc2cc(CCn3cncn3)c(Cl)cc2N1 | 1000 | > 1000 | > 1000 | 8350 | > 1000 | > 1000 | 1000 | > 1000 | > 1000 | 4660 | > 1000 | > 1000 | 1000 | > 1000 | > 1000 | 13.2 | -21.7 | 1000 | > 1000 | > 1000 | GI50 [1]: 1000 nM; TGI [1]: > 1000 nM; CC50 [1]: > 1000 nM; inhibition of growth at 10 µM [2]: 3.54%; GI50 [4]: 1000 nM; TGI [4]: > 1000 nM; CC50 [4]: > 1000 nM; GI50 [5]: 1000 nM; TGI [5]: > 1000 nM; CC50 [5]: > 1000 nM; inhibition of growth at 10 µM [9]: 45.8%; GI50 [11]: 1000 nM; TGI [11]: > 1000 nM; CC50 [11]: > 1000 nM; GI50 [15]: 3020 nM; TGI [15]: > 1000 nM; CC50 [15]: > 1000 nM
O=C1Cc2cc(CCn3ccnc3)c(Cl)cc2N1 | 4080 | > 1000 | > 1000 | 6320 | > 1000 | > 1000 | 6000 | > 1000 | > 1000 | 5180 | > 1000 | > 1000 | 4610 | > 1000 | > 1000 | 2.81 | -23.4 | 1000 | > 1000 | > 1000 | GI50 [1]: 7950 nM; TGI [1]: > 1000 nM; CC50 [1]: > 1000 nM; inhibition of growth at 10 µM [2]: 31%; GI50 [4]: 5850 nM; TGI [4]: > 1000 nM; CC50 [4]: > 1000 nM; GI50 [5]: 1000 nM; TGI [5]: > 1000 nM; CC50 [5]: > 1000 nM; inhibition of growth at 10 µM [16]: 29.9%; GI50 [11]: 1000 nM; TGI [11]: > 1000 nM; CC50 [11]: > 1000 nM; GI50 [15]: 3540 nM; TGI [15]: 9150 nM; CC50 [15]: > 1000 nM
O=C1Cc2cc(CCN3CCNCC3)c(Cl)cc2N1 | 4640 | > 1000 | > 1000 | 6110 | > 1000 | > 1000 | 1000 | > 1000 | > 1000 | 3900 | > 1000 | > 1000 | 6030 | > 1000 | > 1000 | 19 | 10.9 | 1000 | > 1000 | > 1000 | inhibition of growth at 10 µM [16]: 40.1%; inhibition of growth at 10 µM [9]: 59.2%
